Laboratory results published in paper PMC7892437 (Frontiers in Pharmacology, 2021).
pIC50: −log10 of the molar value. Several values for one entry are separate records, joined by “and”; a condition that tells them apart may be missing. Equal entries are not always repeated. Where two headings read alike, the source gives them in different places.

Legend:
[1] = system: VSV-SARS-CoV-2-Sdel18 pseudovirus; assay: microbe, parasite or virus in culture; assay type: cell-based
[2] = system: SARS-CoV-2 BetaCoV/Shenzhen/SZTH-003/2020 strain; assay: microbe, parasite or virus in culture; assay type: cell-based; settings: for inhibitory effect relative to Chloroquine diphosphate: authentic SARS-CoV-2 assay, in vitro
in vitro = settings: hamster
Ebola virus = settings: ref Johansen et al., 2013; cited from earlier work
VSV-G = assay type: cell-based, vesicular stomatitis virus
[3] = Pseudovirus, read-out: Co-treatment IC50
[4] = Pseudovirus, read-out: Pre-treatment IC50
[5] = Pseudovirus, read-out: Pre-treatment IC90
[6] = Severe acute respiratory syndrome coronavirus 2, Vero, 120 h
[7] = Pseudovirus, read-out: Co-treatment IC90

CN1C[C@@H]2c3ccccc3Oc3ccc(Cl)cc3[C@H]2C1.Cl (racemic) [Asenapine (hydrochloride)]
IC90 ([1]; read-out: IC90): 76.4 µM | cell cytotoxicity (BHK21-hACE2 cells; at the concentration of 100 μM): no obvious cell cytotoxicity was observed | IC90 [2]: 43 µM

CCCCc1oc2ccccc2c1C(=O)c1cc(I)c(OCCN(CC)CC)c(I)c1.Cl [Amiodarone (hydrochloride)]
effect on authentic SARS-CoV-2 virus infection ([2]; at a concentration of 100 μM): no effect

CCN(CC)CCCC(C)Nc1ccnc2cc(Cl)ccc12 (stereo not shown) [Chloroquine diphosphate]
pIC50 ([1]; Pseudovirus, 12 h): 4.94 | IC90 ([1]; Pseudovirus, 12 h): 85.2 µM | pIC50 [1, 3]: 4.56 | pIC50 [1, 4]: 5.03 | IC90 [1, 5]: 35.2 µM | pIC50 [2, 6]: 5.27 | IC90 [2, 6]: 12.9 µM

CCN(CC)CCOc1ccc(C(=C(Cl)c2ccccc2)c2ccccc2)cc1 [Clomiphene (citrate)]
IC90 [1, 7]: 19.6 µM | CC50 (in vitro; Co-treatment CC50): 54.4 µM | CC50 (in vitro; Pre-treatment CC50): 24.9 µM | IC90 [2, 6]: 33.9 µM

CCN(CC)CCOc1ccc(C(=C(Cl)c2ccccc2)c2ccccc2)cc1 [Clomiphene]
survival benefit for infected mice (Ebola virus): 90%

CN1CCc2c(c3ccccc3n2Cc2ccccc2)C1 [Mebhydrolin (napadisylate)]
pIC50 ([1]; read-out: IC50): 4.92 | IC90 ([1]; read-out: IC90): 133 µM

CN(C)c1ccc2nc3ccc(=[N+](C)C)cc-3sc2c1 [Methylene Blue]
pIC50 ([1]; Pseudovirus, 12 h): 5.04 | IC90 ([1]; Pseudovirus, 12 h): 70.5 µM

CC[C@@H]1/C=C(\C)C[C@H](C)C[C@H](OC)[C@H]2O[C@@](O)(C(=O)C(=O)N3CCCC[C@H]3C(=O)O[C@H](/C(C)=C/[C@@H]3CC[C@H](Cl)[C@H](OC)C3)[C@H](C)[C@@H](O)CC1=O)[C@H](C)C[C@@H]2OC [Pimecrolimus]
IC90 [1]: 32 µM | pIC50 ([1]; Pseudovirus, 12 h): 4.95 | IC90 ([1]; Pseudovirus, 12 h): < 50 µM | cytotoxicity compared with the other selected drugs (BHK21-hACE2 cells): more serious cytotoxic than other drugs

NC(=O)c1ncn([C@@H]2O[C@H](CO)[C@@H](O)[C@H]2O)n1 [Ribavirin]
inhibitory effect on VSV-G (VSV-G): significant inhibitor effects | pIC50 ([1]; Pseudovirus, 12 h): 5.03 | IC90 ([1]; Pseudovirus, 12 h): 62.1 µM

CN(C)CCOc1ccc(/C(=C(/CCCl)c2ccccc2)c2ccccc2)cc1 [Toremifene (Citrate)]
pIC50 ([1]; read-out: IC50): 5.26 | IC90 ([1]; read-out: IC90): 86.5 µM

CN1CCN(CCCN2c3ccccc3Sc3ccc(C(F)(F)F)cc32)CC1.Cl.Cl [Trifluoperazine (dihydrochloride)]
pIC50 ([1]; read-out: IC50): 5.26 | IC90 ([1]; read-out: IC90): < 50 µM and 27.3 µM | cytotoxicity compared with the other selected drugs (BHK21-hACE2 cells): more serious cytotoxic than other drugs

Br.Cc1ccc(Sc2ccccc2N2CCNCC2)c(C)c1 [Vortioxetine (hydrobromide)]
pIC50 ([1]; read-out: IC50): 5.16 | IC90 ([1]; read-out: IC90): < 50 µM and 44.6 µM | pIC50 [2]: 4.55 | IC90 [2]: 62.8 µM | inhibitory effect relative to Chloroquine diphosphate [2]: slightly less effective

Cc1ccc(Sc2ccccc2N2CCNCC2)c(C)c1 [Vortioxetine]
IC90 [1]: 46.6 µM | pIC50 ([1]; Pseudovirus, 12 h): 5.15 | IC90 ([1]; Pseudovirus, 12 h): < 50 µM | pIC50 [1, 3]: 5.17 | IC90 [1, 7]: 22.3 µM | pIC50 [1, 4]: 5.52 | IC90 [1, 5]: 13.8 µM | CC50 (in vitro; Co-treatment CC50): 27.1 µM | CC50 (in vitro; Pre-treatment CC50): 28.5 µM | pIC50 [2, 6]: 5.10 | IC90 [2, 6]: 18.3 µM | inhibitory effect relative to Chloroquine diphosphate [2]: comparable to Chloroquine diphosphate
